What was measured:
[1] = tested on: HEp-2 cells; experiment: Competitive inhibition of HEp-2 cell attachment to (SPKR)4inv coated wells; type: cell-based, human; conditions: wells coated with (SPKR)4inv
Method: (§1) Cells were harvested with trypsin-EDTA and resuspended in medium containing soybean trypsin inhibitor. After centrifugation, the cell pellet was resuspended in medium containing 20 mM HEPES pH 7.5, 4 g/l BSA. For inhibition studies, 3×10^4 cells were incubated with increasing concentrations of SPKR4-inv protein for 30 min at 22° C.

[2] = tested on: HEp-2 cells; experiment: Competitive inhibition of HEp-2 cell attachment to fibronectin coated wells; type: cell-based, human
Method: as §1

| Substance | ID30 (concentration of competitor that results in 30% inhibition of cell attachment) [1] [µM] | ID30 compared with (SPKR)4inv ([2]; fibronectin coated wells) | ID30 (concentration of competitor that results in 30% inhibition of cell attachment) ([2]; wells coated with fibronectin) [µM] |
| --- | --- | --- | --- |
| A3β1: Recombinant soluble α3β1 integrin (Eble, 1998) | 0.050 | – | – |
| RGDS | 170 | three orders of magnitude higher | 170 |

Reference: patent publication US20040019188A1, “Targeting through integrins” (priority 2000, published 2004)
